From patent publication US20100256332A1, “GLP-1 Fusion Peptides, Their Production and Use” (BIOCOMPATIBLES UK LTD, priority 2007, published 2010)
Where no end group is shown, it is not given here.

Experiments:
[1] = test system: C57BL/KsJ@Rj-db (db/db) mice; assay: Long-term treatment of db/db mice; format: in vivo, mouse; conditions: for non fasted blood glucose level 1h after s.c. peptide injection, compared to control: tail bleed 1 hour after injection; for fasted blood glucose level 18h after peptide injection: 12-hour overnight fast, 18 hours after s.c. injection; for food consumption: weekly, 122 day treatment period, compared to the control
Description: The regimen was continued for 18 weeks. From week 12 to 18 treatment was done twice a day in 6 of 12 animals per group. Various parameters of the mice were investigated, i.e. health status (1), body weight (2), food consumption (3), blood glucose (4), glucose tolerance test (5), insulin data (6), glycosylated hemoglobin (7), pathology (8), and restimulation of T cells (9). • Health status (1) was good in all groups, no side effects of the treatment have been seen. • Body weight (2) was lower in all treated groups after 18 weeks of treatment (FIG. 9). […] The relative body weight increase of 12 animals per group after a treatment of 122 days is plotted. […] Non-fasted blood glucose level (1 hour after peptide injection) is shown in FIG. 11A, i.e. the effect of a treatment with saline (A), CM1 (B), CM3-ANA01 (C) or exendin (D) on the non-fasted blood glucose levels. Blood glucose was measured from a tail bleed 1 hour after s.c. injection of saline (A) or the peptides CM1 (B), CM3-ANA01 (C) or exendin (D) in a concentration of 24 nmol/kg. Compared to control non fasted blood glucose level 1h after s.c. peptide injection is reduced to 55% in group B, 51% in group C and 60% in group D (FIG. 11B). The blood glucose decrease in the treated groups treated groups is highly significant (p<0.0001). Fasted blood glucose level (18 hours after peptide injection) are shown in FIG. 11C, i.e. the effect of a treatment with saline (A), CM1 (B), CM3-ANA01 (C) or exendin (D) on the fasted blood glucose levels. Blood glucose was measured from a tail bleed after a 12-hour overnight fast 18 hours after s.c. injection of the test substances. Fasted blood glucose level 18h after peptide injection is reduced in the CM1 and CM3-ANA01 group. • An i.p. glucose tolerance test (5) (IPGTT) was conducted after 8 weeks of treatment on mice of the groups A-D. […] Blood glucose has been further on determined 15, 30, 45, 60, 90 and 120 minutes after glucose injection. A significant normalization of glucose tolerance was shown in all treated groups (FIG. 12A). In FIG. 12A absolute blood glucose levels during an i.p. glucose tolerance test (IPGTT) after 8 weeks of treatment with saline (A), CM1 (B), CM3-ANA01 (C) or exendin (D) is shown (mean values of each group (n=12)). • Another presentation of the data presented by FIG. 12A of the blood glucose tolerance test is given in FIG. 12B. Relative blood glucose levels during an i.p. glucose tolerance test (IPGTT) after 8 weeks of treatment with saline (A), CM1 (B), CM3-ANA01 (C) or exendin (D) normalized on the starting blood glucose level (100%). • Insulin levels (6) were determined from mice after a 12 hour overnight fastening period. […] Directly after sampling blood samples have been treated with a protease inhibitor cocktail to avoid insulin degradation. The serum was analysed for insulin with the Insulin Mouse Ultrasensitive ELISA (Cat.# EIA-3440, DRG). Significance has been determine with Student's t-test. • Glycosylated hemoglobin (7) is formed by excess plasma glucose binding to hemoglobin in red blood cells (RBC). Since RBCs have a 120-day lifespan, measurements of the glycolylated hemoglobin gives a longer-term indication of glucose control and is seen as a better indicator than plasma glucose levels. Whole blood was collected from the retro-orbital sinus and analyzed with the Enzymatic HbA1c Test Kit (#DZ121A, Diazyme) to determine the glycosylated hemoglobin levels. […] The mean value of all animals per group (n=12) is given. […] Therefore, the spleen of 8 animals per group was explanted, T-cells isolated and restimulated with different concentrations of the corresponding test substance. Compared to non-treated controls no significant increase in peptide restimulated T-cell proliferation was found. […] The stimulation index (SI) was calculated as the quotient of the response in the presence of the respective peptide and the response in the absence of peptides. […]

[2] = test system: diabetic C57BL/KsJ@Rj-db (db/db) mice; assay: Dose-efficacy study in diabetic mice; format: in vivo, mouse; conditions: for fall in plasma glucose @1 h: 1 hour after single s.c. injection of 1.1-3.0 nmol peptide; for fall in plasma glucose @1 h / fall in plasma glucose @4 h: versus control; for fall in plasma glucose @4 h: 4 hours after single s.c. injection of 1.1-3.0 nmol peptide; for plasma glucose ED50: single s.c. dose, percentage decrease of blood glucose at 1h
Procedure: A sixth group was treated with saline only. 7 animals were treated per group. Blood glucose was determined from tail bleeds directly before, 1 hour and 4 hours after injection.
The results are shown in dose-response curves according to FIG. 8 (FIG. 8A (GLP-1), FIG. 8B (CM1), FIG. 8C(CM3) and FIG. 8D (CM3-ANA01)). For every test substance a graph was prepared with the percentage difference of the blood glucose in relation to the start value for the different concentrations. […] Both models are sigmoidal fit models suitable for dose response evaluation. For every peptide the plasma glucose ED50 values (single s.c. dose in μg/mouse) have been determined from the percentage decrease of blood glucose.
The fall in plasma glucose and the corresponding significance levels are given for the time period 1 hour (@1 h) and 4 hours (@4h) after peptide injection. Differences have been observed in the long-term efficacy of the peptides.

[3] = In vitro human plasma stability of GLP-1 CM peptides; conditions: 20 ng/ml peptide, 37° C., 3 hours, GLP-1 (Active) ELISA, versus native GLP-1(7-37)
Description: Dipeptidylpeptidase activity of the plasma was inhibited by an DPP-IV inhibitor (#DPP4, Biotrend).

[4] = test system: type II diabetic mice (C57BUKs-Lepr db/db); assay: In vivo bioactivity in type II diabetic mice; design: species or system mouse; conditions: 5 μg peptide s.c. twice a day, Day 2, 4, 7, 10, overnight fasted
Procedure: 11-week-old type II diabetic mice (C57BUKs-Lepr^db/db, Harlan) were treated with 5 μg peptide by subcutaneous injection twice a day at 9 a.m. and 5 p.m. (n=5 per group).
Blood glucose was measured before (day 0) and after treatment with GLP^CM peptides (Day 2, 4, 7, 10) at 10 a.m. after an overnight fastening period. Data were presented in relation to blood glucose levels measured at day 0.
Best results were obtained with recombinant SEQ ID No.:6 (CM1) and synthetic SEQ ID No.:8 (CM3). In FIG. 5 (y-axis) the relative effect of the treatment is shown. Blood glucose at day=0 was set to 1. Untreated animals undergo continuous increase in blood glucose level over time, whereas animals treated with inventive peptides display grosso modo a continuous decrease of the blood glucose level over time.

BALB/c mice = assay: Immunogenicity study in BALB/c mice
Procedure: The trial was done in BALB/c mice receiving 5 repeated injections (70 μg peptide/dose, i.v.) over 22d (n=5).
Spleens of the treated and control mice were explanted, T-cells isolated and stimulated with increasing amounts of antigene. Proliferative recall response is measured.

[5] = human, 1 μM, pH 7.8
Description: (§1) Results are from triplicates in at least two independent experiments.

[6] = In vitro plasma stability, kinetic test method; conditions: 1 μM peptide, 10% human plasma, 37° C., 0-9 hours
Description: as §1

[7] = 5 repeated injections, 70 μg peptide/dose, i.v., over 22d, BALB/c mice

active GLP-1 left after 9h plasma exposure, % of the 0 h value [5] | in vitro plasma stability, comparison in words [6] | Substance | non fasted blood glucose level 1h after s.c. peptide injection, compared to control ([1]; 24 nmol/kg s.c.) | fasted blood glucose level 18h after peptide injection [1] | food consumption ([1]; p<0.001) | fall in plasma glucose @1 h [2] | fall in plasma glucose @4 h [2] | plasma glucose ED50 [2] | stability in human plasma in vitro (active GLP) [3] | anti-hyperglycemia effect (blood glucose in relation to day 0) ([4]; listed as SEQ ID No.:6) | anti-hyperglycemia effect (blood glucose in relation to day 0) ([4]; listed as recombinant SEQ ID No.:6) | T-cell antibody response and antibody titer (BALB/c mice; [7]) | toxicity (BALB/c mice; [7]) | clinically relevant immunogenicity (BALB/c mice; immunogenicity study in mice) | relative body weight increase ([1]; after a treatment of 122 days, 24 nmol/kg s.c., p<0.001)
 |  | GLP-1 (7-37)-IP2-RR-GLP1(7-37) [CM1] | 55% | reduced | significantly lower | 50% ± 14% @1 h | 0% @4 h | 0.61 μg/mouse | significantly stabilized | anti-hyperglycemia effect | Best results | minimal | no toxicity | absence of any clinically relevant immunogenicity | 
84% | higher plasma stability than CM3 | HAEGTFTSDVSSYLEGQAAKEFIAWLVKGRGAADFPEEVAIAEELG [CM3-ANA01] | 51% | reduced | significantly lower | 62% ± 12% @1 h | 18% ± 11% @4 h | 0.55 μg/mouse |  |  |  |  |  |  | significantly lower
 |  | HAEGTFTSDVSSYLEGQAAKEFIAWLVKGRGRRDFPEEVAIAEELG [CM3, GLP-1(7-37)-IP2] |  |  |  |  |  |  | significantly stabilized |  |  |  |  |  | 
